Data from publication PMC10800023 (Human Molecular Genetics, 2023).
Marks after values point to notes of the source that are not given here.

Key:
[1] = system: B10-mdx mice; test: Tail-suspension test 24 h after force-swim test (Study 2); assay type: in vivo, mouse; details: daily dosing 4 weeks, doses tested (deflazacort 1.25-15 mg/kg; vamorolone all doses 15, 30, 45 mg/kg), vs vehicle B10-mdx
Method: Corticosteroid-treated mice were subjected to the force-swim test (FST) followed by the tail-suspension test (TST) 24 h later. During the TST, normal mice will struggle and constantly move. However, mice show depression-like behavior by quickly giving up, stop moving, and remaining still for a greater percentage of the time.
(§1) Study 2: The goal of the second study was to evaluate corticosteroid side effects and efficacy in a longer study (4 months). After 28 days of dosing, mice were tested for depression-like behavior using a measure of corticosteroid-induced depression (FST followed by TST). Muscle function was tested via grip strength. Tests for depression and for grip-strength were done in a blinded manner. After 4 months, mice were euthanized, and tissues were collected. Bone from whole left leg was collected for micro-CT analysis. The number of animals per group was as follows: WT, n = 16; B10-mdx, n = 15; corticosteroid-treated groups, n = 8–10.
• 1) Force-swim test: Animals were single housed and acclimated in the behavior room for 30 min prior to test. A clean 1-L beaker was filled with 700 to 800 ml of 23°C water. Each mouse was placed into the water for 6 min. The total immobility time was recorded. After the test, the animals were dried and placed in a cage on a heating pad for about 10 min before returning to the home cages. • 2) Tail-suspension test: Isolated mice were suspended 50 cm above the floor by surgical tape placed approximately 1 cm from the tip of the tail for 6 min. The total immobility time of mice was measured. Mice were considered immobile only when they hung passively and completely motionless.

[2] = system: B10-mdx mice; test: RNA-sequencing of tissues after 2 weeks of treatment (Study 1); details: vs vehicle-treated B10-mdx
Text: To evaluate short-term changes, after 2 weeks of treatment, the mice were euthanized, and brain, muscle, and liver tissue collected for RNA-sequencing (RNA-seq) analysis to evaluate the number of changes in gene expression in the muscle, liver, and brain.

[3] = system: B10-mdx mice; test: Circulating lymphocytes and neutrophils (CBC) after 2 weeks (Study 1); assay type: in vivo, mouse
Method: It is understood that part of the efficacy of corticosteroids is via their impact on leukocyte trafficking, resulting in a decrease in lymphocyte and an increase in neutrophil counts in the blood within hours of drug administration. Corticostetoids regulate leukocyte trafficking via changes in adhesion molecules and cytokines, which likely reflects inhibition of NF-κB [39, 40]. The effect of the three corticosteroids on leukocyte trafficking was assessed in B10-mdx mice after 2 weeks of dosing (Study 1). No significant differences in neutrophil-to-lymphocyte ratio were seen between wildtype and B10-mdx mice (Fig. 6a).
Study 1: The goal of this study was to define the dose-response of each of the three corticosteroids. […] On Day 11, mice were fasted for 6 h and then blood was obtained to measure blood glucose. Blood glucose was measured using a glucometer (ACCU-CHECK) by tail bleeding. At the end of 14 days, mice were euthanized, and blood samples were evaluated for complete blood count (CBC) and plasma were collected for analysis of corticosterone levels, osteocalcin, creatine kinase, and cytokines. Brain, muscle, and liver were collected for RNAseq. The number of animals per group was as follows: WT, n = 15; B10-mdx, n = 11; corticosteroid-treated groups, n = 10–12.

[4] = system: B10-mdx mice; test: Femur bone density by micro-CT (Study 2); assay type: in vivo, mouse; details: 4 months of treatment
Method: To evaluate the similarities and differences of potential side effects of the three corticosteroids, plasma/blood were evaluated ex vivo for their effects on endogenous corticosteroid after 14 days of dosing (Study 1) and glucose levels (Study 1) after 11 days of dosing. Bone formation was measured by evaluating osteocalcin levels in Study 1 after 14 days. Bone density was measured by micro-computed tomography (micro-CT) in Study 2 after 4 months.
as §1
Micro-CT analysis was performed by the Rutgers University Molecular Imaging Center (RUMIC). Briefly, skeletons were harvested at trial endpoint and stored in 70% ethanol and transferred for imaging analysis. Hindlimbs were soaked in isotonic saline solution overnight to rehydrate before imaging. […] The rotation step was 0.4° through 180° total rotation, and three images were averaged at each rotation step. Each distal femur was scanned separately, and images were saved. Scan images were reconstructed using Skyscan nRecon software.

[5] = system: STAT1; test: GRE-mediated STAT1 in cultured BMDM; assay type: cell-based, mouse
Text: The immunosuppressive activity of corticosteroids is in part due to their inhibition of NF-κB-induced cytokines including TNF-α, IL-6, and IL-12. Furthermore, expression of some inflammatory-mediated proteins such as STAT1 is mediated via GREs, and not the NF-κB pathway. We therefore expanded murine bone marrow-derived macrophages (BMDM) in vitro, and after 5 days of culture tested the relative efficacy of different corticosteroids to prevent LPS-induced cytokine secretion.
BMDM mouse bone marrow derived macrophage (mBMDM) cultures were generated from the femur and tibia from two 7–11-week-old C57BL/6 mice. Briefly, bone marrow cells were carefully flushed out, suspended in ice-cold PBS, and spun down. After the supernatant was removed, the pelleted cells were resuspended in 2 ml (ammonium-Chloride-Potassium) ACK lysis buffer (Thermo Fisher, Cat# A1049201) and incubated for 3–4 min, followed by 14 ml ice-cold PBS, and then spun down. The pelleted cells were resuspended in 43 ml complete media [Roswell Park Memorial Institute (RPMI 1640), Gibco, Cat# 11875-093; 10% heat-inactivated fetal bovine serum (HiFBS), HyClone, Cat# SH30406.02; 1% 2 mM L-glutamine; 1% penicillin-streptomycin, Sigma, Cat# P4333-100ML; 1% MEM NEAA, Gibco, Cat# 11140-050; 1% Na Pyruvate, Gibco, Cat# 11360-070; 55 μM 2-Mercaptoethanol, Gibco, Cat#21985-023]. A total of 25 ng/ml M-CSF was added to the culture. Cells were dispensed as 200 μl per well into a 96-well tissue culture plate and incubated at 37°C, 5% CO2 for 4 days. On Day 5, media were removed and 100 μl fresh complete media containing M-CSF were added. Corticosteroids were added and cells incubated at 37°C and 5% CO2 overnight. Untreated cells were incubated with media. On Day 6, 10 ng/ml of lipopolysaccharide (LPS) was added and incubated at 37°C and 5% CO2 for 3 h followed by removal of cell media for cytokine analysis. Cytokines were measured using a Meso Scale Discovery (MSD), V-PLEX kit (V-PLEX Cat# K-15048D, www.mesoscale.com).

CC(=O)OCC(=O)[C@@]12N=C(C)O[C@@H]1C[C@H]1[C@@H]3CCC4=CC(=O)C=C[C@]4(C)[C@H]3[C@@H](O)C[C@@]12C [Deflazacort]
immobilization time in tail suspension test [1]: did not increase
Number of genes, Quadriceps, Down-regulated ([2]; 1.25 mg/kg daily): 4245
Number of genes, Quadriceps, No Change ([2]; 1.25 mg/kg daily): 7767
Number of genes, Quadriceps, Up-regulated ([2]; 1.25 mg/kg daily): 4298
Number of genes, Whole Brain, Down-regulated ([2]; 1.25 mg/kg daily): 31
Number of genes, Whole Brain, Up-regulated ([2]; 1.25 mg/kg daily): 1
Number of genes, Quadriceps, Down-regulated ([2]; 2.5 mg/kg daily): 3706
Number of genes, Quadriceps, No Change ([2]; 2.5 mg/kg daily): 9024
Number of genes, Quadriceps, Up-regulated ([2]; 2.5 mg/kg daily): 3580
Number of genes, Whole Brain, Down-regulated ([2]; 2.5 mg/kg daily): 4
Number of genes, Whole Brain, No Change ([2]; 2.5 mg/kg daily): 16306
Number of genes, Whole Brain, Up-regulated ([2]; 2.5 mg/kg daily): 0
Number of genes, Quadriceps, Down-regulated ([2]; 5 mg/kg daily): 5354
Number of genes, Quadriceps, No Change ([2]; 5 mg/kg daily): 4889
Number of genes, Quadriceps, Up-regulated ([2]; 5 mg/kg daily): 6067
Number of genes, Whole Brain, Down-regulated ([2]; 5 mg/kg daily): 39
Number of genes, Whole Brain, No Change ([2]; 5 mg/kg daily): 16214
Number of genes, Whole Brain, Up-regulated ([2]; 5 mg/kg daily): 57
Number of genes, Quadriceps, Down-regulated ([2]; 15 mg/kg daily): 5462
Number of genes, Quadriceps, No Change ([2]; 15 mg/kg daily): 5024
Number of genes, Quadriceps, Up-regulated ([2]; 15 mg/kg daily): 5824
Number of genes, Whole Brain, Down-regulated ([2]; 15 mg/kg daily): 231
Number of genes, Whole Brain, No Change ([2]; 15 mg/kg daily): 15981
Number of genes, Whole Brain, Up-regulated ([2]; 15 mg/kg daily): 98
% decrease in fraction of lymphocytes at Day 14 from mdx vehicle ([3]; 1.25 mg/kg PO daily): (1%)
% increase in fraction of PMNs at Day 14 ([3]; 1.25 mg/kg PO daily): 3%
% decrease in fraction of lymphocytes at Day 14 from mdx vehicle ([3]; 2.5 mg/kg PO daily): 5%
% increase in fraction of PMNs at Day 14 ([3]; 2.5 mg/kg PO daily): 32%*
% decrease in fraction of lymphocytes at Day 14 from mdx vehicle ([3]; 5 mg/kg PO daily): 9%*
% increase in fraction of PMNs at Day 14 ([3]; 5 mg/kg PO daily): 41%*
% decrease in fraction of lymphocytes at Day 14 from mdx vehicle ([3]; 15 mg/kg PO daily): 19%****
% increase in fraction of PMNs at Day 14 ([3]; 15 mg/kg PO daily): 82%****
bone density measured by microCT [4]: not reaching significance
EC50 ([5]; Mus musculus, BMDM, corticosteroid overnight, LPS 10 ng/ml 3 h): 3.1 nM
STAT1/IFN-γ Ratio ([5]; ratio of EC50 values): 11×
